Assays:
[1] = tested on: AIA rats; assay: KA1/AMPAR2 immunohistochemistry and TRAP staining in AIA rats; details: day 21
Procedure: (§4) For AIA, after a 7 day settling in period, animals received a subcutaneous injection of methylated bovine serum albumin (mBSA; 0.5 mg/ml; Sigma, Poole, UK) emulsified with an equal volume of Freund's complete adjuvant (CFA; 0.25 mg Mycobacterium tuberculosis: Sigma) into the right flank. A second subcutaneous injection of the emulsion was administered in the left flank 7 days later. Fourteen days following the second injection (day 0), an intra-articular injection of mBSA (0.5 mg in 50 μl saline) was administered into the right knee of 15 rats to serve as the AIA group. Another 15 rats received an intra-articular injection of 0.5 mg mBSA mixed with 2.5 mM NBQX (Tocris, Bristol, UK) in 50 μl saline, into the right knee. These rats served as the NBQX treatment group. […] Six control rats received no subcutaneous or intra-articular injections.
GluRs and transporters were localised in sequential paraffin knee sections (9 AIA, 9 NBQX and 6 control knees) using antibodies to kainate (anti-KA1, 1:400 dilution), AMPA receptor-2 (anti-ionotropic glutamate receptor-2, 1:100, both Abcam, Cambridge, UK), GLAST (GLAST11-S, 1:100) and EAAC1 (EAAC11-A, 1:200, both Alpha Diagnostic International, Texas, USA). AMPAR2 was also localised in 6 MNX and 6 naïve rats. Sections, processed as for histology, were deparaffinised and rehydrated prior to antigen retrieval using 1 mg/mitrypsin (Sigma) for 20 minutes at 37° C. Endogenous peroxidase activity was blocked with 0.3% hydrogen peroxide (Sigma) for 30 minutes followed by 3 washes in 1×TBS/0.1% tween for 15 minutes each. Sections were treated with 10% normal blocking serum (Sigma) for 1 hour prior to overnight incubation at 4° C. with primary antibody, followed by 3 washes in 1×TBS/0.1% tween. […] ABC horseradish peroxidase kit following the manufacturer's instructions (Vector Laboratories, Peterborough, UK). Sections were developed using nickel enhanced diaminobenzidine (DAB) (Vector Laboratories), counterstained in Mayer's haematoxylin (Fisher Scientific), rinsed in tap water, dehydrated, cleared in xylene and mounted. […]

[2] = tested on: AMPA receptor; details: cited from earlier work
[3] = tested on: ligament ruptured mice; assay: Knee swelling in non-invasive ligament rupture mouse model; format: in vivo; details: 20 mM intra-articular
Procedure: We have established a non-invasive mouse model of post-traumatic knee joint degeneration due to ligament rupture.
Using custom built cups to hold the knee in flexion, loads (12N, 4 Hz, sine wave; ElectroForce® 3200, BOSE, USA) were applied to the right knees of 12-week-old C57Bl6 mice (n=10). […] Left knees served as unloaded controls. Immediately following ligament rupture, mice were given an intra-articular injection of 20 mM NBQX in to the right knee, whilst the control mice received an intra-articular injection of sterile H2O (vehicle control). A single dose of Temgesic was also given sub-cutaneously to relieve pain for up to 12 hours following loading.
Lameness scores were carried out every day for the first week and then every few days the following weeks to assess the welfare of the animals and the potential need for pain relief. Knee swelling was measured using digital callipers on days 0, 1, 2, 3, 7, 16 and 21. All mice were euthanized on day 21 and the knee joints fixed in formalin for histology.

[4] = Body weight in ligament rupture mouse model; format: in vivo; details: all mice; over 21 days
Procedure: Using our non-invasive ligament rupture model, following trauma mice were given an intra-articular injection of 20 mM NBQX in the right knee. The left knee served as unloaded controls. Sterile water injections were performed in some mice to act as vehicle control. Knee swelling was measured using digital callipers on days 0, 1, 2, 3, 7, 16 and 21. […] Lameness scores were not severe enough to warrant extra doses of pain relief.

[5] = tested on: AIA rats; assay: Footprint analysis in AIA rats
Procedure: as §4
Hindlimb walking patterns were evaluated by footprint analysis on days 0, 1, 2, 3, 4, 7, 9, 14 and 21 as previously described (4). […] Three sets of at least two stepping cycles per side (six sequential steps) were performed for each rat per experimental day. Three parameters were measured: limb rotation (angle between a line through the centre of the foot pad parallel to the walking direction and a line through the third digit), stride length (distance between feet of the same side) and stance width (distance between feet of the right and left stepping cycle).

[6] = Body weight in MNX rats; format: in vivo, rat; details: all rats; over 21 days
Procedure: (§1) NBQX treated rats received two intra-articular injections, the first immediately after MNX surgery and the second 7 days later. A single dose of Temgesic was also given sub-cutaneously to relieve pain following surgery. […] Vehicle control rats received injections of sterile H2O delivered in the same way at the same times. Over 21 days, weight, knee swelling (digital calliper) and incapacitance (Linton incapacitance meter) were measured on days 0, 1, 2, 3, 7, 8, 10, 14 and 21. The Linton incapacitance meter measures the weight exerted on each back leg whilst the rat is stationary in a clear Perspex box. The difference in weight bearing can then be calculated between the left and right leg. All rats were euthanized on day 21 and the knee joints fixed in formalin for histology.

[7] = tested on: Kainate receptor; details: cited from earlier work
[8] = tested on: human RA FLS; details: cited from earlier work
[9] = tested on: AIA rats; assay: Macroscopic knee analysis (X-ray, MRI) in AIA rats; format: in vivo, rat; details: day 21
From the text: Prior to decalcification, whole rat knees were examined by radiography and MRI. Radiographs of both the inflamed and non-inflamed knees of 9 AIA, 9 NBQX and 3 control rats were obtained using a Kodak FX Pro in-vivo Imaging System (Advanced Molecular Vision, Grantham, UK), and the images analysed using Kodak Molecular Imaging software version 5 with the following parameters: 30 second exposure time at 35 kV, 4.96 F-stop, 71.4 mm FOV, 9.8 mm focal plane.
Both the inflamed and non-inflamed knee joints of 6 AIA and 6 NBQX rats were imaged using a high spatial resolution MRI scanning protocol at the Experimental MRI Centre (EMRIC, School of Biosciences, Cardiff University). Each pair of knees was embedded in 1% agarose (Promega) inside a 50 ml falcon tube prior to scanning. MRI was performed using a Bruker Biospin Advance 9.4T ([…]) MRI system equipped with a transmit-receive quadrature coil. The scanning acquisition parameters were as follows: echo time […], repetition time 24 msec, field of view […]; matrix 640×280×280; and flip angle 180°. Images were subsequently viewed and analysed in ParaVision 5.1 (Bruker) and Analyze 10.0 software Mayo Biomedical Imaging Resource, Rochester, Minn., USA).

[10] = tested on: AIA rats; assay: Knee swelling in AIA rats; format: in vivo, rat
Procedure: Diameters of the inflamed (right) and non-inflamed (left) knees of all the rats were measured using a Mitutoyo® digital calliper (RS Components Ltd, Northants, UK) to quantify swelling. […] Three readings were taken for each knee and the difference between the means of the inflamed and non-inflamed knee gave a value in millimeters of knee swelling.

[11] = tested on: MNX rats; assay: Incapacitance testing in MNX rats; format: in vivo, rat; details: day 8
Procedure: (§2) We have established the meniscal transection (MNX) rat model of osteoarthritis. Surgery resection was performed wherein cutting through and removing part of the medial collateral ligament and then transecting the medial meniscus was performed under Home Office License. Surgery was performed under anaesthesia. Animals were then allowed to recover from surgery.
(§3) Using the MNX model, we tested the effects of NBQX injected directly into the knee joint. There were 5 groups of male Sprague-Dawley rats, 3 animals per group as follows: • MNX+sterile H2O (vehicle control) • MNX+2.5 mM NBQX • MNX+12.5 mM NBQX • MNX+25 mM NBQX • Naïve
as §1

[12] = tested on: Cathepsin K mRNA; assay: Bone phenotype mRNA expression in AIA rat knees; format: in vivo; details: day 21
[13] = tested on: RA FLS; details: cited from earlier work
[14] = tested on: IL-6 mRNA; assay: IL-6 mRNA expression in AIA rat joint tissues (QRT-PCR); format: in vivo; details: day 21
[15] = tested on: AIA rats; assay: Histological disease assessment in AIA rats (synovial inflammation, joint degradation); format: in vivo, rat; details: day 21
Procedure: On day 21, 9 AIA, 9 NBQX and 3 control rats were culled and their knees dissected intact and fixed in 10% neutral buffered formalin solution (Sigma) for 2 days. Knees were decalcified in 10% EDTA (Fisher Scientific, Loughborough, UK) at 4° C., embedded in paraffin wax, sectioned (6 μm) in the coronal plane and stained with haematoxylin and eosin for synovial inflammation or toluidine blue/safranin-O for cartilage and bone scoring or retained for immunohistochemical analysis. Synovial inflammation and joint degradation were scored by two independent observers blinded to treatment group. An established scoring system was used to score synovial inflammation (3). Briefly, 3 parameters were scored: synovial hyperplasia (pannus formation) (0-3), synovial infiltrate (0-5) and synovial exudate (0-3), to give a maximum score of 11 per joint. Joint degradation was scored using a modified Mankin score (Table 1) consisting of: cartilage surface integrity (0-6), chondrocyte appearance (0-2), proteoglycan loss (0-4), tidemark integrity (0-2) and bone changes (0-3) to give a maximum score of 17 per joint quadrant (medial and lateral femoral condyles (MFC and LFC respectively) and medial and lateral tibial plateaux (MTP and LTP respectively)) totaling to a maximum of 68 per knee. In each knee, two representative sections ˜500 μm apart were scored for joint degradation.

[16] = tested on: MNX rats; assay: Knee swelling in meniscal transection (MNX) rats; format: in vivo, rat
Procedure: as §2, §3, §1

NS(=O)(=O)c1cccc2c1c([N+](=O)[O-])cc1[nH]c(=O)c(=O)[nH]c12 [NBQX, 2,3-dihydroxy-6-nitro-7-sulfamoyl-benzo[f]quinoxaline-2,3-dione]
GluR positive cells [1]: apparent reduction
TRAP positive osteoclasts vs AIA [1]: less abundant
extent of bone remodeling [1]: reduced
AMPA receptor antagonist [2]: Yes
knee swelling vs vehicle controls ([3]; day 7, P<0.05): significantly less knee swelling
knee swelling vs vehicle controls ([3]; day 21, P<0.001): significantly less knee swelling
knee swelling compared to day 0 measurements ([3]; from day 2): no significant difference
weight [4]: consistently put on weight
stance width vs control rats ([5]; P<0.05): significantly greater
stride length vs control rats ([5]; P<0.05): significantly shorter
stride length ([5]; by day 14): returned to normal
stance width ([5]; by day 21): normal
weight bearing (footprints) ([5]; days 1 and 2): able to weight bear
degree of foot rotation vs control rats ([5]; right limb, P<0.05): significantly greater
weight [6]: consistently put on weight
Kainate receptor antagonist [7]: Yes
MMP-2 expression by FLS [8]: did not affect
joint erosion in MRI [9]: greatly reduced
joint erosions in X-rays [9]: Fewer joint erosions
synovial inflammation in MRI [9]: greatly reduced
mean knee swelling ([10]; day 1, 2.5 mM intra-articular, right knee): 2.95 mm
reduction in peak knee swelling ([10]; day 1, vs AIA rats, 2.5 mM intra-articular): 33%
knee swelling vs AIA rats ([10]; every time point throughout 21 days, P<0.001): significant reduction
difference in weight bearing left/right leg of vehicle control MNX rats compared to NBQX treated rats ([11]; 2.5 mM, P<0.01): significantly greater difference in weight bearing
difference in weight bearing left/right leg of vehicle control MNX rats compared to NBQX treated rats ([11]; 12.5 mM, P<0.05): significantly greater difference in weight bearing
difference in weight bearing left/right leg of vehicle control MNX rats compared to NBQX treated rats ([11]; 25 mM, P<0.01): significantly greater difference in weight bearing
cathepsin K mRNA expression, inflamed knees vs AIA inflamed knees [12]: significant reduction
inhibition of IL-6 release increased by high glutamate concentrations [13]: inhibited
IL-6 relative expression levels in meniscus vs AIA rats ([14]; inflamed knee, P<0.05): significantly lower
IL-6 relative expression levels in meniscus vs AIA rats ([14]; left non-inflamed knee): not significant
synovial hyperplasia, exudate, infiltrate and articular surface degradation vs AIA rats [15]: significantly less severe
average joint degeneration severity score vs AIA rats ([15]; P<0.001): significantly reduced
bone changes score vs AIA ([15]; P<0.001): largest difference
synovial inflammation score vs AIA rats ([15]; P<0.001): significantly lower
joint degradation in the MFC vs AIA rats ([15]; P<0.01): significantly less joint degradation
proteoglycan loss score vs AIA ([15]; P<0.01): significantly lowered
tidemark integrity score vs AIA ([15]; P<0.01): significantly lowered
chondrocyte appearance score vs AIA ([15]; P<0.05): significantly lowered
joint degradation in the LFC vs AIA rats ([15]; P<0.05): significantly less joint degradation
knee swelling of vehicle control MNX rats compared to NBQX treated MNX rats ([16]; day 8, 25 mM intra-articular, P<0.05): significantly greater knee swelling
knee swelling of vehicle control MNX rats compared to NBQX treated MNX rats ([16]; day 14, 2.5 mM intra-articular, P<0.01): significantly greater knee swelling
knee swelling of vehicle control MNX rats compared to NBQX treated MNX rats ([16]; day 14, 12.5 mM intra-articular, P<0.05): significantly greater knee swelling

— patent US9918986B2, “Methods and compounds for preventing osteoarthritis” (UNIVERSITY COLLEGE CARDIFF CONSULTANTS LIMITED, priority 2013, dated 2018)
